How the values were obtained:
rat trachea rings = test: Tracheal relaxation assay (carbachol precontracted rings); conditions: for IC50: Rattus norvegicus, read-out: IC50 Avg;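 as to all read-outs here: isometric tension of rat tracheal rings in Krebs buffer with 1 µM indomethacin, compounds added cumulatively at 30 min intervals, basal tension subtracted, fit to Hill equation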
[1] = Rat oral pharmacokinetics (plasma); type: in vivo
Description: Plasma (EDTA K2 anticoagulant) was collected from male, cannulated, CD Sprague Dawley rats to determine the pharmacokinetics of formulations containing compound inhibitors of Rho kinase. Each animal was dosed orally with a 4 ml/kg solution or suspension of each test compound in 10 mM acetate buffered saline, pH 4.5 at a final concentration range of 20-30 μmol/kg. Blood was collected at 0.25, 0.5, 1, 2, 4, 6, 8, and 24 hours. Plasma samples were assayed for the concentration of the test compound using an on-line, solid phase extraction LC/MS/MS analysis system.
Samples were analyzed on a QSTAR Elite, hybrid quadrupole time-of-flight mass spectrometer (Applied Biosystems, Framingham, Mass.) coupled with a Symbiosis Pharma integrated, on-line SPE-HPLC system (Spark Holland Inc., Plainsboro, N.J.). Analyst QS 2.0 software was used for instrument control, data acquisition and processing. […] Mobile Phase A consisted of 0.1% ammonium hydroxide in water and Mobile Phase B consisted of 0.1% formic acid in acetonitrile. Pharmacokinetic analyses were performed using WinNonlin software version 5.2 (Pharsight Corporation, Mountain View, Calif.).
As determined from the plasma concentration versus time curves, the time to peak and peak exposure are represented by the values Tmax and Cmax, respectively. The AUC values (nM*hr) shown were calculated as the areas under the plasma concentration versus time curves from time zero through the time of the last observable value and represent the total exposure of the compound over the course of the study. Half-life values or the amount of time required for the plasma levels of the compound to decline to half the initial value are represented as t1/2.

[2] = tested on: A-10 rat thoracic aorta cells; test: PDGF-stimulated smooth muscle cell proliferation assay (BrdU); type: cell-based; conditions: 10 μM compound, 10 ng/mL PDGF, A-10 cells, percent of total challenge-stimulated proliferation
Description: Effects on cell proliferation were measured using a bromodeoxyuridine (BrdU) incorporation assay. […] Serum free media containing 0.1% BSA was added to the cells. 24 hours later the media was removed and replaced with warmed serum free media. […] Proliferation was then monitored using the BrdU Cell Proliferation Assay, HTS (Calbiochem cat. #HTS01). BrdU was allowed to incorporate into cells for 24 hours prior to the addition of fixative/denaturing solution and the fluorometric detection of incorporated BrdU using a BrdU antibody as per manufacturer's directions. Data are reported as a percent of the PDGF-stimulated BrdU incorporation.

[3] = tested on: ova-sensitized, ova-challenged mice; test: Bronchodilator assay in ovalbumin-sensitized mice (Penh, methacholine); type: in vivo, mouse
Description: Male BALB/c mice were ordered from Charles River Laboratories (Raleigh, N.C.). The animals were approximately 19 to 21 grams at time of receipt. Upon arrival, the animals were randomized into groups of five males per cage and assigned to a dosing group. Animals were quarantined for 7 days under test conditions. They were observed daily for general health status and ability to adapt to the water bottles.
Animals were sensitized on day 0 and 14 of study by an intraperitoneal injection with 20 μg of ovalbumin (ova) and 2.0 mg aluminum hydroxide (alum) which initiates the development of a specific T-helper (Th) cells type 2 resulting in asthmatic animals. One group of animals received an injection of saline to use as non-asthmatic control animals. All animals were challenged with aerosolized 1% ova once daily for 25 minutes on days 28, 29, and 30 (Zosky, et al. Respiratory Research. 2004; 5:15). Aerosol challenge consists of using an Aerogen Aeroneb nebulizer and controller with a particle size of 4-6 μm mass median aerodynamic diameter (MMAD) with a distribution of 400 μl per minute. This aerosol challenge is necessary to target the Th2-driven allergic inflammation in the lower airways.
The test compounds and the control vehicle were administered to animals on the day of airway hyperreactivity evaluation 30 minutes to 1 hour before the evaluation to determine the bronchodilator effects of the compounds according to the bronchodilator dosing paradigm (FIG. 8). Compounds were administered p.o. (orally), i.p. (intraperitoneally) at 15 μMol/kg unless otherwise noted (Table 6). Alternatively, compounds were administered i.t. (intratracheally) at varying doses as shown (FIG. 9). On day 32 of the experiment, airway hyperreactivity was evaluated by placing conscious, unrestrained animals in a whole body plethysmometer (Buxco Wilmington, N.C.) and exposing them to escalating doses of nebulized methacholine, a known bronchial constrictor which acts through the muscarinic receptors of the lungs, (doses: 0.325-50 mg/ml). Exposure to the methacholine doses consisted of a 3 minute period during which a nebulizer was aerosolizing the methacholine and an additional 3 minute period following the cessation of nebulization. Over this 6 minute period, the plethysmometer monitors and generates numerical values for all parameters of the breath pattern. Enhanced pause (Penh), a unitless index of airway hyperreactivity, is derived from the expiratory side of the respiratory waveform measured via the plethysmograph and is used as an indirect measure of airway resistance and hyperreactivity. […] Following the methacholine dose response, all animals were anesthetized, bled and euthanized.
Within each experiment, a mouse was given a single compound and exposed to increasing doses of methacholine [0 (baseline), 0.375, 0.75, 1.5, 3, 6, 12, 25, 50 mg/ml]. The Penh value at each of the dose levels of methacholine represents the 6-minute average response. Change from baseline (CFB) in Penh was calculated at each methacholine dose and the area under the curve (AUC) for these CFB values was calculated using the trapezoidal rule. This same approach was applied for each mouse across multiple experiments.
For statistical analyses, a linear mixed-effects model where the response was the log 10 transformed value of AUC described above was used. Data from equal experimental conditions across experiments performed on different days were pooled for statistical analysis and data reporting. The various compounds were compared adjusting for the log 10-transformed baseline value of Penh and the chamber (1 of 10) of the plethysmometer each mouse was contained in during an experiment. A random intercept for each experiment was assumed to account for possible similarities of the results obtained from a given experiment (i.e., as a “blocking effect”). […] Computations were performed using PROC MIXED (SAS Version 9.1). […]

murine eosinophils = test: Eotaxin-induced murine eosinophil chemotaxis; type: cell-based, mouse; conditions: 10 nM eotaxin challenge; FIG. 1
Description: Bronchoalveolar lavage was collected from ovalbumin sensitized and challenged mice in a volume of 2.5 mL lavage buffer. The lavage buffer was 0.9% saline with 10% fetal bovine serum. The pooled lavages were maintained on ice until use. The murine eosinophils were isolated using MACS cell separation (Miltenyi Biotech) by depletion of B cells and T cells by positive selection following incubation with antibody conjugated magnetic beads specific for CD45-R (B220) and CD90 (Thy 1.2), which bind B cells and T cells, respectively.
Eosinophil chemotaxis was assessed using a modified Boyden Chamber (Neuroprobe, 96-well) with a 5 μm pore membrane. The ability of the tested compounds to block chemotaxis induced by a 10 nM eotaxin challenge (mouse) or 1 nM eotaxin challenge (human) during one hour incubation at 37° C. with 5% CO2 was assessed. Chemotaxis was quantified via microscopy by counting the number of migrated cells in at least 3 view fields per treatment.

human eosinophils = test: Eotaxin-induced human eosinophil chemotaxis; type: cell-based; conditions: 1 nM eotaxin challenge; FIG. 2
From the text: Peripheral blood from healthy human volunteers was collected and the PMNs separated via Ficoll-paque density centrifugation followed by hypotonic lysis of the red blood cells. Subsequently, the human eosinophils were isolated from the cell suspension via StemCell Technologies Human Eosinophil Enrichment kit (Cat. No 19256) according to the manufacturer's recommendations. Briefly, unwanted cells were specifically labeled with dextran-coated magnetic nanoparticles using bispecific Tetrameric Antibody Complexes (TAC) directed against cell surface antigens on human blood cells: […] The unwanted cells are then separated from the unlabelled eosinophils using the EasySep® magnetic isolation procedure.

[4] = tested on: ova-sensitized, ova-challenged mice; test: In vivo anti-inflammatory assay in ovalbumin-sensitized mice (BALF eosinophils and cytokines); parameters: species or system mouse
From the text: A mouse model of asthma via ovalbumin sensitization was created as described in Example 23. The anti-inflammatory dosing paradigm (FIG. 10) was utilized to evaluate the anti-inflammatory effects of experimental compounds. The anti-inflammatory dosing paradigm consists of dosing the animals once a day starting on day 27 and finishing on either day 30 or 31 (1 hr prior to the aerosolized ovalbumin challenges on days 28 to 30) but not on day 32 when hyperreactivity evaluation occurs.
Bronchoalveolar lavage fluid (BALF) was collected by infusing 3.0 ml of saline with 10% fetal calf serum into the lungs via the trachea and then withdrawing the fluid. The total amount of cells/ml of BALF fluid was determined via manual cell count on hemocytometer. The BALF was centrifuged, supernatant removed and analyzed for cytokine concentrations as described below, and cell pellet reconstituted in 500 μL of fluid. Cytospin slides were prepared from the cell pellet using 100 μL of fluid and spinning samples for 5 minutes at 5000 rpms in a cytospin centrifuge. Following Hema3 stain, relative percentages of individual leukocytes were determined on a 200 cell count for each sample. The final concentration of individual leukocyte cell types per ml of BALF was determined by multiplication of the relative percentage of individual leukocytes with the total amount of cells/ml of BALF fluid.
The concentrations of cytokines in the BALF samples were determined using commercially available Bio-plex kits (Bio-Rad) for the detection of mouse IL-5, IL-13, and Eotaxin. The analysis of cytokine levels was measured using the Bio-Plex 200 (Bio-Rad) system according to the manufacturer's instructions.

[5] = tested on: ova-sensitized, ova-challenged mice; test: Prevention of airway hyperreactivity development, anti-inflammatory dosing paradigm (Penh); type: in vivo, mouse; conditions: oral 15 μMol/kg once a day during days 27 to 31; methacholine on Day 32
rat pulmonary artery = test: Pulmonary arterial relaxation assay (norepinephrine precontracted rings)
Description: Pulmonary artery or aorta were excised, cleaned of connective tissue and cut into cylindrical segments of 2-3 mm length. The preparations were mounted in a tissue bath by tying two threads of surgical silk through the lumen of the vessel. One silk was used to anchor the tissue to a metal wire in the bath and the other silk was connected to a force transducer. […] Contractile tensions were measured using an isometric force transducer (Grass Instruments) and signals were analyzed using specialized software (Chart v5.5, ADInstruments). The preparations were allowed to equilibrate at a resting tension of 0.1 to 0.2 gm for pulmonary artery and 2.0 gm for aorta prior to two challenges with 80 mM KCl to assess tissue viability. After washing, tissues were treated with 100 nM norepinephrine for 5 to 10 minutes to induce a contractile response. For pulmonary artery, compounds were added cumulatively to the bath every 30 minutes and reductions in tension were recorded. Basal tension was subtracted from all values and data was reported as a percentage of the maximal norephinephrine-induced contraction. Data were fit to the Hill equation using GraphPad Prism v5 software. For aorta, a single dose of compound was added and reductions in tension were recorded.

rat aorta = test: Aortal relaxation assay (norepinephrine precontracted rings); conditions: 100 μM compound, 100 nM norepinephrine; FIG. 4B
Description: This assay is a model for selecting compounds for treating diseases that involve constriction of arterial smooth muscle, such as atherosclerosis and systemic hypertension. The effects of compounds to induce relaxation of pre-contracted rat pulmonary artery and rat aorta were determined. […] Pulmonary artery or aorta were excised, cleaned of connective tissue and cut into cylindrical segments of 2-3 mm length. The preparations were mounted in a tissue bath by tying two threads of surgical silk through the lumen of the vessel. One silk was used to anchor the tissue to a metal wire in the bath and the other silk was connected to a force transducer. […] Contractile tensions were measured using an isometric force transducer (Grass Instruments) and signals were analyzed using specialized software (Chart v5.5, ADInstruments). The preparations were allowed to equilibrate at a resting tension of 0.1 to 0.2 gm for pulmonary artery and 2.0 gm for aorta prior to two challenges with 80 mM KCl to assess tissue viability. […] For pulmonary artery, compounds were added cumulatively to the bath every 30 minutes and reductions in tension were recorded. Basal tension was subtracted from all values and data was reported as a percentage of the maximal norephinephrine-induced contraction. […] For aorta, a single dose of compound was added and reductions in tension were recorded.

[6] = rat, oral, 20-30 μmol/kg, plasma, mean of n = 3

CSc1ccc(CN2CC[C@@H](Nc3cccc4cnccc34)C2)cc1 [Compound 2.026, (R)-N-(1-(4-(methylthio)benzyl)pyrrolidin-3-yl)isoquinolin-5-amine]
Percentage of carbachol-induced contraction at 10 μM compound, Avg % (rat trachea rings; 1 μM carbachol): 17.1%
IC50 (rat trachea rings): 2860 nM
AUC (0-last) [1, 6]: BLQ
Cmax [1, 6]: BLQ
Tmax [1, 6]: BLQ
Vz_F [1, 6]: BLQ
t½ [1, 6]: BLQ
Percent of PDGF Induced Proliferation at 10 μM Avg [2]: 52.0%

CS(=O)(=O)Nc1cccc(CN2CC[C@@H](Nc3cccc4cnccc34)C2)c1 [Compound 2.038, (R)-N-(3-((3-(isoquinolin-5-ylamino)pyrrolidin-1-yl)methyl)phenyl)methanesulfonamide]
Percentage of carbachol-induced contraction at 1 μM compound, Avg % (rat trachea rings; 1 μM compound, 1 μM carbachol): 57.2%
Percentage of carbachol-induced contraction at 10 μM compound, Avg % (rat trachea rings; 1 μM carbachol): 10.2%
IC50 (rat trachea rings): 272 nM
Trachael Ring Contraction, % (rat trachea rings; average percentage of carbachol-induced rat tracheal ring contraction at 1 μM of test compound): 57%
log10AUC (penh) ([3]; 15 μmol/kg oral, bronchodilator dosing paradigm): 2.0813
reduction in airway hyperresponsiveness ([3]; oral doses): statistically significant reduction
chemotactic response of murine eosinophils (murine eosinophils): inhibited
chemotactic response of human eosinophils (human eosinophils): inhibited
concentration of IL-5 in BALF ([4]; 15 μmol/kg/oral on days 27 to 31, FIG. 13): reduced levels
concentration of Eotaxin in BALF ([4]; 15 μmol/kg/oral on days 27 to 31, FIG. 14): reduced levels
concentration of IL-13 in BALF ([4]; 15 μmol/kg/oral on days 27 to 31, FIG. 15): reduced levels
eosinophils per ml of BALF (airway eosinophil infiltration) ([4]; dosed orally to day 31, anti-inflammatory dosing paradigm, FIG. 11): reduced
plasma and lung tissue concentrations after oral dosing ([1]; oral dosing, refers to Table 13 and Table 15): high plasma and lung tissue concentrations
airway hyperreactivity to methacholine [5]: prevention of airway hyperreactivity

OCCOc1cccc(CN2CC[C@@H](Nc3cccc4cnccc34)C2)c1 [Compound 2.039, (R)-2-(3-((3-(isoquinolin-5-ylamino)pyrrolidin-1-yl)methyl)phenoxy)ethanol]
relaxant response in precontracted pulmonary artery (rat pulmonary artery; 100 nM norepinephrine precontracted, FIG. 4A): fully relaxed
IC50 (rat pulmonary artery; Rattus norvegicus, read-out: IC50 for compound-induced relaxation): 151 nM
Percentage of carbachol-induced contraction at 10 μM compound, Avg % (rat trachea rings; 1 μM carbachol): 6.2%
IC50 (rat trachea rings): 343 nM
norepinephrine-induced contractile response (tension) of aortal ring (rat aorta): fully reversed

— patent US20130172324A1, “METHOD FOR TREATING CARDIOVASCULAR DISEASES USING RHO KINASE INHIBITOR COMPOUNDS” (priority 2008, published 2013)
